From US8999964B2, “TGR5 modulators and methods of use thereof” (Intercept Pharmaceuticals, Inc., priority 2008, dated 2015)
Like-named read-outs stand apart in the source and are kept apart here. Marks after values point to notes of the source that are not given here.

How the values were obtained:
[1] = Critical micellar concentration by surface tension measurements; type: physicochemical; conditions: […] NaCl water solution
Experimental: The critical micellar concentration (CMC) was determined by surface tension (ST) measurements using a maximum bubble-pressure method which give surface tension values slightly affected by potential impurities […] static methods. […] The surface tension values were plotted against the logarithm of the bile salt concentration; the regression lines corresponding to the two parts of the curve (monomeric and micellar phases) were calculated using the method of least squares, and the intersection of the lines was taken as the CMC value. From the ST vs concentration curves the value of the surface tension at the CMC (equilibrium between monomers and multimers species) was also calculated giving information about the detergency power which is related to the size of the micelles with associate surface tension lowering capacity. The CMC was evaluated by surface tension measurements in non equilibrium conditions i.e. in conditions that impurities slightly affect the surface tension results (FIG. 6). […] The presence of a hydroxyl group in the C-16 beta position reduces the hydrophobic area responsible for back to back interaction, which is to form micelles and therefore, the micelles are small and poorly detergent. This property confers to the molecule a low toxicity when accumulated in a given biological fluid or organ.

[2] = tested on: HepG2 cells; experiment: HepG2 apoptosis (caspase-3 activation); type: cell-based; conditions: Homo sapiens, HepG2, 4 h, read-out: APOPTOSIS Caspase-3 activation EC50
[3] = Bile fistula rat, femoral (iv) infusion: bile flow, biliary secretion, metabolism; conditions: iv infusion, bile fistula rat
[4] = tested on: intestinal bacteria; experiment: In vitro metabolic stability in human stools culture; type: in vitro ADME
Experimental: Homogenized fresh human stools (500 mg) were transferred into sterile vials to which 5 mL of sterilized chopped meat-glucose medium (Scott Lab., Fiskville, R.I.) was added. BAs were then added at a final concentration of 0.05 mM. Vials were incubated at 37° C.; then, at 0, 1, 2, 4, 8 and 24 h after the addition of the BA, the reaction was stopped with 150 μL of 30% KOH. The samples were centrifuged at 3500 rpm for 10 min; from the supernatant the BA were isolated by C-18 solid-phase extraction and analyzed by TLC and HPLC-ES-MS/MS.
Thin-layer chromatography (TLC), utilizing silica gel 0.25 mm thickness plates (Merck, Darmstat, Germany), was employed as the first screening test. The solvent system used for the separation of conjugated BA was composed of propionic acid/isoamyl acetate/water/N-propanol (3:4:1:2, v/v/v/v; solvent I), and that of the unconjugated BA was acetic acid/carbon tetrachloride/isopropyl ether/isoamyl acetate/water/N-propanol/benzene (1:4:6:8:2:2, v/v/v/v/v/v; solvent II).

[5] = in vitro; conditions: human
[6] = molecular target: T1, bovine serum albumin (Bos taurus, UniProt P02769); experiment: Albumin binding by equilibrium dialysis; type: in vitro ADME; set-up: 5% bovine serum albumin-saline solution (pH 7.2); from tissue; host or cells: bovine serum (by the name of the product); conditions: 100 μM BA in 5% bovine serum albumin-saline, pH 7.2
T1 sequence (P02769 25-607): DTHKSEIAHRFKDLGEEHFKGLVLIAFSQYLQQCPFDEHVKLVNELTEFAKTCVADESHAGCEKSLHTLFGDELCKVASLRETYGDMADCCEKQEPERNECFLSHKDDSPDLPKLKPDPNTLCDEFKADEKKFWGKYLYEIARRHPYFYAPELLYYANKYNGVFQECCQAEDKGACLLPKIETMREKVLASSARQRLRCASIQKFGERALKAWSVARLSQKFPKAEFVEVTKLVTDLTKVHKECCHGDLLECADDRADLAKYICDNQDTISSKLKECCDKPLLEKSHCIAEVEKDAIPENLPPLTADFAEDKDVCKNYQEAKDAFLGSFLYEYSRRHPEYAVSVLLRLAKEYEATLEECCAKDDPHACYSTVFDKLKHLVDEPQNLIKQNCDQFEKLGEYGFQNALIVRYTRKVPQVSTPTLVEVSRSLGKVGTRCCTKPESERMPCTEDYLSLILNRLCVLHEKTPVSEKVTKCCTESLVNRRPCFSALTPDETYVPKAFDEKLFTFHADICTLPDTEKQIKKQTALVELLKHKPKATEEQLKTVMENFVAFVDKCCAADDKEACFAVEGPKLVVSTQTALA
Experimental: The extent of albumin binding was evaluated by equilibrium dialysis at a fixed BA-albumin ratio. Each BA was dissolved at a concentration of 100 μM in 5% bovine serum albumin-saline solution (pH 7.2) and left to stand for 24 h at 25° C. Two milliliters of this solution was dialyzed in cellulose sacs having a molecular weight cut-off of 12,000-14,000 Dalton against 25 ml of saline solution. The system was equilibrated by gently shaking for 72 h at 25° C. BA concentrations of the dialyzed solution (corresponding to the free unbound fraction) and of the starting solution were determined with HPLC-ESI-MS/MS in the same conditions of the previous analysis.
The percentage of albumin binding was calculated from the initial BA concentration and from the unbound concentration in the dialyzed fraction.

[7] = 1-Octanol/water partition coefficient (shake-flask); conditions: bile acids as ionized species, pH 8
Experimental: (§1) The octanol/water partition coefficient was measured for molecules in their ionized form and therefore the carboxy analogues were studied at a relatively high pH (8 to 9) to ensure full ionization of the carboxyl group. The 1-Octanol/water partition coefficient (log P) was evaluated using a conventional shake-flask procedure. […] The aqueous buffer was previously pre-saturated with 1-octanol, 5 ml of 1-octanol pre-saturated with water was then added and the samples were left to equilibrate for 2 weeks under continuous stirring at room temperature. After centrifugation the two phases were carefully separated. […] The flow rate was 150 μal/min and the column was maintained at 45° C.

[8] = tested on: HepG2 cells; experiment: HepG2 necrosis (LDH release); type: cell-based; conditions: Homo sapiens, HepG2, 4 h, read-out: NECROSIS LDH release EC50
[9] = molecular target: T2, hFXR (Homo sapiens, UniProt Q96RI1); experiment: Alphascreen coactivator recruitment assay on FXR; conditions: Table 6; coactivator recruitment (Alphascreen)
T2 sequence (Q96RI1 262-486 limits assumed): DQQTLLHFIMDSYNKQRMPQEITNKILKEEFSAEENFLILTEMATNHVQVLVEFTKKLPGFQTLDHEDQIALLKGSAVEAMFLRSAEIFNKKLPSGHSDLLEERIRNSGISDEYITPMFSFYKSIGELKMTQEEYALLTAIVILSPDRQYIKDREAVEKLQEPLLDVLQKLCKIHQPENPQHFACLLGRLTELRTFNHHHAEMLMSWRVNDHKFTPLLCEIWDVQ
Experimental: Activity on FXR was assayed by using Alphascreen technology in a coactivator recruitment assay. AlphaScreen is a bead-based chemistry assay used to study biomolecular interactions. Binding of molecules captured on the beads leads to an energy transfer from one bead to the other, ultimately producing a luminescent signal. When the partners interact, chemical energy is transferred from Donor to Acceptor beads and a signal is produced. Upon bile acids stimulation the GST-FXR-LBD interacts with the Src-1 peptide. Anti-GST-coated Acceptor beads were used to capture the GST-fusion FXR-LBD whereas the biotinylated-SRC-1 peptide was captured by the streptavidin Donor beads. Upon illumination at 680 nm chemical energy is transferred from Donor to Acceptor beads across the complex streptavidin-Donor/Src-1-Biotin/GSTFXR-LBD/Anti-GST-Acceptor and a signal is produced. The assay was performed in white, low-volume, 384-well Optiplates (PerkinElmer) using a final volume of 25 μl containing final concentrations of 10 nM of purified GST-tagged FXR-LBD protein, 30 nM biotinylated Src-1 peptide, 20 μg/ml anti-GST acceptor beads acceptor beads and 10 μg/ml of streptavidin donor bead (PerkinElmer). […] After the addition of the detection mix (acceptor and donor beads), the plates were incubated in the dark for 4 h at room temperature and then were read with an Envision microplate analyzer (PerkinElmer). […]

[10] = molecular target: T3, LXRα (Homo sapiens, UniProt Q13133); experiment: LXR coactivator recruitment (Alphascreen); type: biochemical; conditions: Table 6
T3 sequence (Q13133 1-447): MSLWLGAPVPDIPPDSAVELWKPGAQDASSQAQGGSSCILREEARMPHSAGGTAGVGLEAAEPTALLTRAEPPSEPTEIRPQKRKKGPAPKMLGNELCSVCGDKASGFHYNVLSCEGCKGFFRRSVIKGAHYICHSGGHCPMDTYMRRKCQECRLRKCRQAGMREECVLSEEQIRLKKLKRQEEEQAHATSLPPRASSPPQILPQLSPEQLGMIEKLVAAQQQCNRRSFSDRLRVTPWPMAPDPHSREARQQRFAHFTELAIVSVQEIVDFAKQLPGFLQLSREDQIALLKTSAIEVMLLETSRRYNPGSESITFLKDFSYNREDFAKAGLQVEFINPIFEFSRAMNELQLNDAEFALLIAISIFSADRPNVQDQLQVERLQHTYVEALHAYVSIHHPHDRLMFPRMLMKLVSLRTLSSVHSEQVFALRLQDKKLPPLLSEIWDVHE

[11] = tested on: HepG2 cells
[12] = pH 1
[13] = molecular target: T4, VDR (Homo sapiens, UniProt P11473); experiment: VDR activation, NR selectivity assay; type: biochemical; conditions: Table 6
T4 construct: purchased Invitrogen
T4 sequence (P11473 127-423 limits assumed): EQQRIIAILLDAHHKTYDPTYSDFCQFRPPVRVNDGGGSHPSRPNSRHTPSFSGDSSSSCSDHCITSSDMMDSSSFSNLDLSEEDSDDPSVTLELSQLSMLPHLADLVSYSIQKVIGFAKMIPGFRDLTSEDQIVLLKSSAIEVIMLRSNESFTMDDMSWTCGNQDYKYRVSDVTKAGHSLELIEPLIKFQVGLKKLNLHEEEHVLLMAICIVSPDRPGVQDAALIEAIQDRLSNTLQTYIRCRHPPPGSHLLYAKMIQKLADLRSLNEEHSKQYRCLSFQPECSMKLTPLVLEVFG

[14] = pH 8
Experimental: as §1

[15] = molecular target: T5, CAR (Homo sapiens, UniProt Q14994); experiment: CAR coactivator recruitment (Lanthascreen); type: biochemical; conditions: Table 6; *: data representing inverse agonism; read-out: CAR Activation EC50
T5 construct: purchased Invitrogen
T5 sequence (Q14994 109-352 limits assumed): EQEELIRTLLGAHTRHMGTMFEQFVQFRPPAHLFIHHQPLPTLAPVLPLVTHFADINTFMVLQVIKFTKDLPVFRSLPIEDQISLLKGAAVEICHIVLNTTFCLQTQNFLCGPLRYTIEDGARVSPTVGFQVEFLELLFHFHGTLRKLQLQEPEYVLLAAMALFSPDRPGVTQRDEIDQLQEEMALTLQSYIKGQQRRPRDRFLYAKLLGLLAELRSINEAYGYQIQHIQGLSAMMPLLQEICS

[16] = molecular target: T6, PPARδ (Homo sapiens, UniProt Q03181); experiment: PPARδ activation, NR selectivity assay; conditions: Table 6
T6 sequence (Q03181 211-439 limits assumed): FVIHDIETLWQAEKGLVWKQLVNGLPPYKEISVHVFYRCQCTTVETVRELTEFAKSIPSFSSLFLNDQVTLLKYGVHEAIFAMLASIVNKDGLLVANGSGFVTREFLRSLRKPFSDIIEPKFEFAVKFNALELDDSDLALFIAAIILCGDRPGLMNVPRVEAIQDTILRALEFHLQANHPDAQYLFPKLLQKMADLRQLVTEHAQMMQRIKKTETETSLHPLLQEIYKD

[17] = […] NaCl water solution; *values from literature; cited from earlier work
[18] = molecular target: T1, bovine serum albumin; conditions: cited from earlier work
[19] = previous study, cited from earlier work
[20] = tested on: HepG2 cells; experiment: HepG2 cytotoxicity (ATP decrease, ATP-Lite); conditions: read-out: CYTOTOXICITY ATP decrease EC50, 4 h

## C[C@H](CCC(=O)O)[C@H]1CC[C@H]2[C@@H]3[C@H](O)C[C@@H]4C[C@H](O)CC[C@]4(C)[C@H]3CC[C@]12C [CDCA, chenodeoxycholic acid, reference compound]
[1]
  CMC […] Na+: 3.2 mM
  STCMC: Surface Tension at CMC: 45.5 Dyne/cm
[2]
  EC50: 890 µM
[3]
  Bile flow with respect to control: No significant differences
[3]; control 70
  Maximum bile flow rate: 4.8 mL/h/kg
[4]
  Metabolism in human stool cultures: almost completely metabolized
[4]; 7α-dehydroxylation, 0.05 mM, 37° C.
  Half-life time in human stool cultures: almost one hour
[5]
  EC50 at 4 h: 650 µM
[6]
  Albumin Binding: 93%
[7]
  LogPA-: 1-octanol-water partition coefficient: 2.2
[8]
  EC50: > 1000 µM

## C[C@H](CCC(=O)O)[C@H]1CC[C@H]2[C@@H]3[C@H](O)C[C@@H]4C[C@H](O)CC[C@]4(C)[C@H]3C[C@H](O)[C@]12C [CA, cholic acid, reference compound]
[9]
  FXR Activation EC50: No activity

## C[C@H](CCC(=O)O)[C@H]1CC[C@H]2[C@@H]3[C@@H](O)C[C@@H]4C[C@H](O)CC[C@]4(C)[C@H]3CC[C@]12C [UDCA]
[1]
  CMC […] Na+: 6.0 mM
  STCMC: Surface Tension at CMC: 50.5 Dyne/cm
[10]
  LXRα Activation EC50: No activity
[11]
  EC50: > 1000 µM
[12]
  Ws: water solubility: 7.5 µM
[13]
  VDR Activation EC50: No activity
[6]
  Albumin Binding: 94%
[14]
  LogPA-: 1-octanol-water partition coefficient: 2.2
[15]
  EC50: > 250 µM
[16]
  PPARδ Activation EC50: No activity

## C[C@H](CCC(=O)NCCS(=O)(=O)O)[C@H]1CC[C@H]2[C@@H]3[C@H](O)C[C@@H]4C[C@H](O)CC[C@]4(C)[C@H]3CC[C@]12C [TCDCA]
[17]
  CMC […] Na+: 3.0* mM
[18]
  Albumin Binding: 70* %
[12]
  Ws: water solubility: hs

## C[C@H](CCC(=O)NCCS(=O)(=O)O)[C@H]1CC[C@H]2[C@@H]3[C@@H](O)C[C@@H]4C[C@H](O)CC[C@]4(C)[C@H]3CC[C@]12C [TUDCA]
[17]
  CMC […] Na+: 2.2* mM
[18]
  Albumin Binding: 67* %
[12]
  Ws: water solubility: hs

## C[C@H](CCC(=O)O)[C@H]1CCC2C3C(CC[C@@]21C)[C@@]1(C)CC[C@@H](O)CC1[C@@H](C)[C@@H]3O (some centres unmarked) [Compound 6MUDCA]
[17]
  CMC […] Na+: 4.2* mM
[18]
  Albumin Binding: 80* %

## CC1(C)CC[C@]2(C(=O)O)CC[C@]3(C)C(=CC[C@@H]4[C@@]5(C)CC[C@H](O)C(C)(C)[C@@H]5CC[C@]43C)[C@@H]2C1 [OA, oleanolic acid]
[19]; 100 mg/kg/day
  Toxicity in animals: some signs of toxicity
[19]; lower dose than 100 mg/kg/day
  Tolerability in animals: well tolerated

## CN[C@@H]1C[C@H]2O[C@@](C)([C@@H]1OC)n1c3ccccc3c3c4c(c5c6ccccc6n2c5c31)C(=O)NC4 [Staurosporine]
[20]
  EC50: 15 µM

## C[C@H](CCC(=O)O)[C@H]1CC[C@H]2[C@@H]3CC[C@@H]4C[C@H](O)CC[C@]4(C)[C@H]3CC[C@]12C [LCA, lithocholic acid]
[2]
  EC50: 65 µM
[8]
  EC50: 105 µM
